The results in this text go back to patent US6541515B2, “HIV integrase inhibitors” (Merck & Co., Inc., priority 2000, dated 2003).

The target of this experiment is recombinant integrase (HIV integrase) (Human immunodeficiency virus type 1 group M subtype B, UniProt P04585). Briefly: HIV integrase assay: strand transfer catalyzed by recombinant integrase. Type of experiment: biochemical. Conditions: strand transfer activity. As for the experimental part:
HIV Integrase Assay: Strand Transfer Catalyzed by Recombinant Integrase and Preintegration Complexes
Assays for the strand transfer activity of integrase can be conducted according to Wolfe et al., J. Virol. 1996, 70: 1424 and Farnet and Bushman, Cell 1997, 88: 483 for recombinant integrase and preintegration complexes, respectively, hereby incorporated by reference. Compound A was tested in the recombinant integrase assay and found to have an IC50 of about 20 micromolar.

As to `CCCCC(C)C1=C(O)C(=O)C2CC(C)CC(C(=O)O)C2C1(C)C(=O)CCO` (stereo not shown) [Compound A], the concentration for half-maximal inhibition (IC50) – broadly, the concentration at which inhibition is half-maximal – is approximately 20 µM.
